In ChEMBL document CHEMBL4483862, “Open-source discovery of chemical leads for next-generation chemoprotective antimalarials” (2018) one finds IC50 and IC90 data, which are given here for 29 compounds.

pIC50: −log10 of the molar value.

The pIC50 is the negative decadic logarithm of the IC50, by convention in mol/L. A word on the IC90: it is the point of the concentration-response curve where the effect stands at 90%.

The test concerns Plasmodium berghei. Description: Luciferase/luciferin-expressing antifolate-resistant parasites were used to infect a culture of HepG2 cells that were pre-incubated with compounds. Infected hepatocytes emit light due to the luciferase reaction. Assay results are presented as the percent inhibition of light emission compared to control. […]. It counts as functional. To be noted: sporozoite; for IC90: read-out: LUCIFERASE INFECTION ASSAY - IC90.

Regarding `Cc1ccc(S(=O)(=O)Nc2cccc3ncccc23)s1`, the 90% effect concentration (IC90) worked out at 3.72 µM. Also, the pIC50 (HEPG2TOX_HILL_SLOPE 1.87, HEPG2TOX_R_SQUARED 0.954, PBLUC_HILL_SLOPE 8.9, PBLUC_R_SQUARED 0.583, read-out: LUCIFERASE INFECTION ASSAY - IC50) is 5.54.
For `O=C(Nc1cc(Cl)cc(Cl)c1)c1cc(Cl)ccc1O`, the IC90 is 1.1 µM. Further, where the note is “HEPG2TOX_HILL_SLOPE 1.87, HEPG2TOX_R_SQUARED 0.915, PBLUC_HILL_SLOPE 2.8, PBLUC_R_SQUARED 0.713, read-out: LUCIFERASE INFECTION ASSAY - IC50”, the pIC50 was 6.30.
As for `CO/N=C(/CS(=O)(=O)c1ccc(Cl)cc1)c1ccc(Cl)cc1`, the 90% effect concentration (IC90) worked out at 3.25 µM. In addition, the pIC50 (HEPG2TOX_HILL_SLOPE 1.88, HEPG2TOX_R_SQUARED 0.932, PBLUC_HILL_SLOPE 2.15, PBLUC_R_SQUARED 0.742, read-out: LUCIFERASE INFECTION ASSAY - IC50) was 5.93.
For `COc1cc(C)ccc1Oc1nc2cc(C)nn2c2ccccc12`, the IC90 was above 10 µM. Besides, under “HEPG2TOX_HILL_SLOPE 1.87, HEPG2TOX_R_SQUARED 0.892, read-out: LUCIFERASE INFECTION ASSAY - IC50”, the pIC50 is below 5.00.
In the case of `CC(=O)Nc1ccc(-c2cnc3ccc(-c4cccs4)nn23)cc1`, the IC90 was 2.75 µM. Moreover, the negative-log IC50 (pIC50) (HEPG2TOX_HILL_SLOPE 1.84, HEPG2TOX_R_SQUARED 0.871, PBLUC_HILL_SLOPE 5.5, PBLUC_R_SQUARED 0.751, read-out: LUCIFERASE INFECTION ASSAY - IC50) is 5.74.
For the compound `Cc1nccc(-c2cccc(N/N=C(\C#N)S(=O)(=O)c3ccccn3)c2)n1`, the 90% effect concentration (IC90) was found to be 8.23 µM. Moreover, for the setting “HEPG2TOX_HILL_SLOPE 1.84, HEPG2TOX_R_SQUARED 0.959, PBLUC_HILL_SLOPE 1.78, PBLUC_R_SQUARED 0.641, read-out: LUCIFERASE INFECTION ASSAY - IC50”, the pIC50 is 5.62.
`CC1S/C(=C\c2nc3ccccc3s2)NC1=O` (stereo not drawn): the IC90 is above 10 µM. In addition, the pIC50 (HEPG2TOX_HILL_SLOPE 1.83, HEPG2TOX_R_SQUARED 0.983, PBLUC_HILL_SLOPE 1.76, PBLUC_R_SQUARED 0.572, read-out: LUCIFERASE INFECTION ASSAY - IC50) is 5.46.
On to `COc1cccc(C(=O)Nc2nc3ccc(C)cn3c2C(=O)NC2CCCC2)c1`, for which the IC90 was determined as 3.16 µM. In addition, the pIC50 (HEPG2TOX_HILL_SLOPE 1.86, HEPG2TOX_R_SQUARED 0.913, PBLUC_HILL_SLOPE 11.1, PBLUC_R_SQUARED 0.319, read-out: LUCIFERASE INFECTION ASSAY - IC50) was 5.59.
As for `CCCCc1ccc(C(=O)Nc2nc3ccc(C)cn3c2C(=O)NCCC)cc1`, the concentration for an effect of 90% (IC90) turned out to be 3.18 µM. Also, the pIC50 (HEPG2TOX_HILL_SLOPE 1.88, HEPG2TOX_R_SQUARED 0.855, PBLUC_HILL_SLOPE 16.2, PBLUC_R_SQUARED 0.661, read-out: LUCIFERASE INFECTION ASSAY - IC50) was 5.56.
Take `Cc1nn2c(nc(N3CCCC3)c3ccccc32)c1C=C1C(=O)NC(=S)NC1=O`: the IC90 came out at 5.31 µM. The pIC50 (HEPG2TOX_HILL_SLOPE 1.87, HEPG2TOX_R_SQUARED 0.941, PBLUC_HILL_SLOPE 2.44, PBLUC_R_SQUARED 0.519, read-out: LUCIFERASE INFECTION ASSAY - IC50) is 5.67.
As to `O=C(Nc1cc(Cl)cc(Cl)c1)c1cc(Br)ccc1O`, the IC90 amounted to 1.35 µM. For the same compound, where the note is “HEPG2TOX_HILL_SLOPE 1.83, HEPG2TOX_R_SQUARED 0.974, PBLUC_HILL_SLOPE 1.75, PBLUC_R_SQUARED 0.827, read-out: LUCIFERASE INFECTION ASSAY - IC50”, the pIC50 is 6.41.
Turning to `CCO/C=N\C1=C(C#N)C(c2ccc(OC)cc2)c2ccc3ccccc3c2O1` (stereo not drawn), the IC90 was above 8.58 µM. In addition, the negative logarithm of the IC50 (pIC50) (HEPG2TOX_HILL_SLOPE 1.86, HEPG2TOX_R_SQUARED 0.624, read-out: LUCIFERASE INFECTION ASSAY - IC50) is below 5.07.
Take `CCOC(=O)CCc1c(C)[nH]n(-c2nc3ccccc3[nH]2)c1=O`: the IC90 came out at 3.53 µM. Besides, the pIC50 (HEPG2TOX_HILL_SLOPE 1.88, HEPG2TOX_R_SQUARED 0.728, PBLUC_HILL_SLOPE 14.3, PBLUC_R_SQUARED 0.719, read-out: LUCIFERASE INFECTION ASSAY - IC50) is 5.52.
Consider `O=C(C1CCC1)N1CCN(Cc2ccc(-c3ccc(Cl)cc3)s2)CC1`, for which the IC90 is above 10 µM. In addition, the pIC50 (HEPG2TOX_HILL_SLOPE 1.83, HEPG2TOX_R_SQUARED 0.819, PBLUC_HILL_SLOPE 1.76, PBLUC_R_SQUARED 0.701, read-out: LUCIFERASE INFECTION ASSAY - IC50) was 5.38.
Take `CCN(CC)CCN1COc2c(cc(Cl)c3cccnc23)C1`: the IC90 amounted to 4.94 µM. For the same compound, where the note is “HEPG2TOX_HILL_SLOPE 1.86, HEPG2TOX_R_SQUARED 0.951, PBLUC_HILL_SLOPE 8.52, PBLUC_R_SQUARED 0.457, read-out: LUCIFERASE INFECTION ASSAY - IC50”, the pIC50 was 5.42.
As for `Clc1ccc(-c2cn3c(-c4ccccc4)cnc3cn2)c(Cl)c1`, the IC90 was 3.69 µM. Moreover, where the note is “HEPG2TOX_HILL_SLOPE 1.88, HEPG2TOX_R_SQUARED 0.996, PBLUC_HILL_SLOPE 1.95, PBLUC_R_SQUARED 0.542, read-out: LUCIFERASE INFECTION ASSAY - IC50”, the pIC50 was 5.92.
For the compound `O=c1nc(-c2ccc3c(c2)OCCO3)[nH]c2sc(-c3ccccc3)cc12`, the IC90 worked out at 4.31 µM. Further, where the note is “HEPG2TOX_HILL_SLOPE 1.86, HEPG2TOX_R_SQUARED 0.902, PBLUC_HILL_SLOPE 1.77, PBLUC_R_SQUARED 0.594, read-out: LUCIFERASE INFECTION ASSAY - IC50”, the pIC50 was 5.90.
Take `CCOC(=O)c1ccc(NC(=S)N/N=C/c2ccccc2O)cc1`: the IC90 amounted to 5.71 µM. Further, the negative logarithm of the IC50 (pIC50) (HEPG2TOX_HILL_SLOPE 1.84, HEPG2TOX_R_SQUARED 0.879, PBLUC_HILL_SLOPE 113, PBLUC_R_SQUARED 0.459, read-out: LUCIFERASE INFECTION ASSAY - IC50) is 5.25.
Turning to `Cc1ccnc(NC(=O)C2CC(=O)N(c3ccc(C)c(C)c3)C2)c1` (stereo not drawn), the IC90 stood at 4.04 µM. In addition, for the setting “HEPG2TOX_HILL_SLOPE 1.86, HEPG2TOX_R_SQUARED 0.878, PBLUC_HILL_SLOPE 11.1, PBLUC_R_SQUARED 0.462, read-out: LUCIFERASE INFECTION ASSAY - IC50”, the negative logarithm of the IC50 (pIC50) was 5.48.
As to `CC1CC(C)CN(Cc2ccccc2CNC(=O)Nc2nnc(C3CC3)s2)C1` (stereo not drawn), the IC90 was above 10 µM. Moreover, the pIC50 (HEPG2TOX_HILL_SLOPE 1.87, HEPG2TOX_R_SQUARED 0.778, PBLUC_HILL_SLOPE 3.71, PBLUC_R_SQUARED 0.683, read-out: LUCIFERASE INFECTION ASSAY - IC50) was 5.19.
As for `Cc1cccc(C(=O)N[C@H](C(=O)Nc2nc(-c3ccccn3)cs2)C(C)C)c1`, the IC90 came out at 3.94 µM. For the same compound, under “HEPG2TOX_HILL_SLOPE 1.86, HEPG2TOX_R_SQUARED 0.615, PBLUC_HILL_SLOPE 3.31, PBLUC_R_SQUARED 0.556, read-out: LUCIFERASE INFECTION ASSAY - IC50”, the pIC50 is 5.69.
As for `O=C(NCCO)c1cccc(-c2ccc3ncc(-c4cccc(CO)c4)n3n2)c1`, the IC90 worked out at 3.67 µM. Further, the pIC50 (HEPG2TOX_HILL_SLOPE 1.86, HEPG2TOX_R_SQUARED 0.81, PBLUC_HILL_SLOPE 12.7, PBLUC_R_SQUARED 0.352, read-out: LUCIFERASE INFECTION ASSAY - IC50) was 5.51.
As for `CC(=O)c1cccc(-c2cnc3ccc(-c4cccc(C(=O)NCCO)c4)nn23)c1`, the IC90 amounted to 2.32 µM. Where the note is “HEPG2TOX_HILL_SLOPE 1.87, HEPG2TOX_R_SQUARED 0.674, PBLUC_HILL_SLOPE 4.19, PBLUC_R_SQUARED 0.651, read-out: LUCIFERASE INFECTION ASSAY - IC50”, the pIC50 is 5.86.
With `Cc1ccc(-c2nc(COC(=O)Cc3ccccc3[N+](=O)[O-])cs2)cc1`, the IC90 was above 10 µM. Under “HEPG2TOX_HILL_SLOPE 1.86, HEPG2TOX_R_SQUARED 0.968, PBLUC_HILL_SLOPE 3.1, PBLUC_R_SQUARED 0.491, read-out: LUCIFERASE INFECTION ASSAY - IC50”, the pIC50 is 5.21.
`Cc1sc2nc(-c3cccnc3)nc(NCCNc3ccccn3)c2c1C`: the 90% effect concentration (IC90) stood at 1.71 µM. In addition, the pIC50 (HEPG2TOX_HILL_SLOPE 1.88, HEPG2TOX_R_SQUARED 0.918, PBLUC_HILL_SLOPE 8.99, PBLUC_R_SQUARED 0.794, read-out: LUCIFERASE INFECTION ASSAY - IC50) was 5.87.
On to `CCOC(=O)c1c(NC(=O)CSc2ncnc3scc(-c4ccc(OC)cc4)c23)sc2c1CCCC2`, for which the 90% effect concentration (IC90) is above 10 µM. The negative logarithm of the IC50 (pIC50) (HEPG2TOX_HILL_SLOPE 1.83, HEPG2TOX_R_SQUARED 0.223, read-out: LUCIFERASE INFECTION ASSAY - IC50) is below 5.00.
For `O=C(Nc1nc2ccccc2n1C1CCCCC1)c1ccoc1`, the IC90 was 4.66 µM. Further, the pIC50 (HEPG2TOX_HILL_SLOPE 1.84, HEPG2TOX_R_SQUARED 0.834, PBLUC_HILL_SLOPE 10.1, PBLUC_R_SQUARED 0.2, read-out: LUCIFERASE INFECTION ASSAY - IC50) was 5.43.
For the compound `Cc1cc(C(=O)Cn2cnc3ccccc3c2=O)c(C)n1-c1ccccc1F`, the IC90 was above 10 µM. Also, under “HEPG2TOX_HILL_SLOPE 1.86, HEPG2TOX_R_SQUARED 0.464, PBLUC_HILL_SLOPE 1.21, PBLUC_R_SQUARED 0.574, read-out: LUCIFERASE INFECTION ASSAY - IC50”, the negative-log IC50 (pIC50) is 5.44.
On to `CNC(=O)c1csc(C(O)c2cccc(C(F)(F)F)c2)n1` (stereo not drawn), for which the IC90 stood at 3.81 µM. The pIC50 (HEPG2TOX_HILL_SLOPE 1.87, HEPG2TOX_R_SQUARED 0.885, PBLUC_HILL_SLOPE 18.2, PBLUC_R_SQUARED 0.279, read-out: LUCIFERASE INFECTION ASSAY - IC50) was 5.47.
